Here are results for three compounds from US20240002332A1, “Small Molecule Inhibitors of SARS-CoV-2 Infections” (priority 2020, published 2024).

Data set [1] is described as follows: Parallel artificial membrane permeability assay (PAMPA).
A short description of data set [2]: Rat liver microsomal (RLM) stability. Conditions: for half-life: rat. For orientation: Microsomes from liver hold many membrane-bound enzymes, among them those of drug oxidation.
The subject of the next data set is Vero-E6. The data set is described as follows: Cytotoxicity counter screen (cell viability, CellTiter-Glo). The format is cell-based. Conditions: for IC50: Chlorocebus sabaeus, read-out: IC50 (μM) cell viability. How it is done: Compound cytotoxicity was assessed in a BSL-2 counter screen as follows: Cell culture media (MEM, 1% Pen/Strep/GlutaMax, 1% HEPES, 2% HI FBS) was dispensed at 5 μl/well into ARPs and incubated at room temperature to allow for compound dissolution. Vero-E6 (selected for high ACE2 expression) was dispensed into assay plates at 4000 cells/well in 25 μl media. Assay plates were incubated for 72 h at 37 C, 5% CO2, 90% humidity. Then, 30 μl/well of CellTiter-Glo (Promega #G7573) was dispensed into the assay plate. Luminescence was read using a BMG PHERAstar plate reader following incubation at room temperature for 10 min to measure cell viability.

In another data set the test system is SARS-CoV-2. The data set is described as follows: SARS-CoV-2 viral titer in human bronchial epithelial cells (HBEC; EpiAirway). It counts as cell-based. The conditions noted are these: dilutions 0.01, 0.1, 1, 10 micrograms per mL. How it is done: In the first part of the experiment, the test compounds were diluted in Assay medium (AIR-100-ASY). The test compound dilutions (0.01, 0.1, 1, 10 micrograms per mL) were added to each insert on the apical layer (0.15 mL) and basal layer (0.85 mL). Following the 1 h treatment, the apical medium was removed, and the basal side was replaced with fresh compound. Virus (0.15 mL) was then added to each insert on the apical layer, removed after 1 h and washed with 0.4 mL TEER buffer. The basal side medium/compound was replaced with 1 mL of Assay medium. Every twenty-four hours, the apical layer of the tissues were washed with 0.4 mL of TEER buffer and aliquoted to separate microfuge tubes. Trizol LS (1.2 mL) was added to each tube, pipetted up and down several times and stored at −80° C. The basal layer supernatant (1 mL) was collected from each well, aliquoted into separate microfuge tubes and stored at −80° C. The basal side medium was replaced with 1 mL of Maintenance Medium.
In the second part of the experiment, RNA was isolated from the trizol samples and the supernatants from all treatments were tittered by plaque assay or TCID50 to determine the amount of virus present in each sample.

The next data set can be described thus: in vitro. The conditions noted are these: rat, microsomes.
A short description of data set [3]: Pharmacokinetics in mice IV 3 and PO 10 mg/kg; plasma, lung and liver.
In another data set the test system is ZIKV. Conditions: cited from earlier work.
Where [4] appears, read: uninfected Vero-E6, 72 h, CellTiter-Glo.
Setting [5] is: mice, Compound P3 dosed PO 10 mg/kg, Liver.
Where [6] appears, read: mice, Compound P3 dosed PO 10 mg/kg, Plasma.
The mark [7] stands for this setting: mouse Plasma, Compound P3 dosed IV 3 mg/kg.
Where [8] appears, read: mouse Plasma, Compound P3 dosed PO 10 mg/kg.

Where two headings read alike, the source gives them in different places. Some results are limits rather than exact numbers.

A word on the half-life: it is the time in which the quantity being followed falls by half. A low value points to rapid decline. Usually IC50 stands for the point on the concentration scale where inhibition reaches its midpoint. Turning to `O=C(Nc1ccc([N+](=O)[O-])cc1Cl)c1cc(Br)ccc1O` [Compound 6, 5-bromo-N-(2-chloro-4-nitrophenyl)-2-hydroxybenzamide], the Permeability in data set [1] (PAMPA, Tier I ADME) is reported as 67 10^−6 cm/sec. Besides, in data set [2] (microsomes), the half-life is above 0.5 h. Moreover, in the data set with Vero-E6 (Vero C1008, 72 h), the IC50 came to 0.4 µM. The compound also had an Efficacy cell viability in the data set with Vero-E6 (setting [4]) of −94.8. Besides, in the data set with SARS-CoV-2, the “inhibition of SARS-CoV-2 (viral titer)” value is “effectively inhibited SARS-CoV-2 in human bronchial epithelial cells at sub-nanomolar and nanomolar concentrations”.

On to `O=C(Nc1ccc(C(F)(F)F)c(F)c1)c1cc(Br)ccc1O` [Compound 59, 5-bromo-N-(3-fluoro-4-(trifluoromethyl)phenyl)-2-hydroxybenzamide], for which the half-life in “in vitro” is above 0.5 h. Moreover, in the data set with Vero-E6 (Vero C1008, uninfected Vero-E6, 72 h, CellTiter-Glo), the IC50 came to 0.45 µM. In the data set on Vero-E6 (setting [4]), this compound displayed an Efficacy cell viability of −91.7.

The term Cmax denotes the maximum level reached in the sampled fluid or tissue. In general, t½ refers to how long it takes for the measured level to halve. A higher t½ goes with slow loss. The AUC(0-inf) is the area under the concentration-time curve extrapolated to infinity. By AUC(0-t) is commonly meant the area under the concentration-time curve up to a stated or last time point. The low end stands for less exposure, the high end for more exposure. One may read the Tmax as the time from dosing to the highest level. Regarding `O=C(Nc1ccc([N+](=O)[O-])cc1Cl)c1cc(Cl)ccc1O` [Niclosamide, 5-chloro-N-(2-chloro-4-nitrophenyl)-2-hydroxybenzamide, reference compound], the “permeability in PAMPA” value in data set [1] (result in words) was “unable to be quantified in the acceptor compartment”. Also, in data set [2] (rat liver microsomes, T1/2), the “RLM stability (T1/2 min)” value is above 0.5 h. Besides, the half-life in data set [2] (rat liver microsomes) is above 0.5 h. Further, in data set [3] (setting [5]), the “AUC_% Extrap” value was determined as 4.4% and the t1/2 is 7.3 h. The “AUC_% Extrap” value in data set [3] (mice, Compound P3 dosed PO 10 mg/kg, Lung) is 0.6%. Besides, in data set [3] (setting [6]), the AUC0-INF was determined as 1620 ng·h/mL and the “AUC_% Extrap” value was determined as 1.0%. Further, in data set [3] (setting [7]), the AUC_%Extrap_obs was 0.3%, the Clast is given as 0.329 ng/mL and the Tlast worked out at 30 h. In data set [3] (setting [8]), this compound had an AUCINF_obs of 1620 ng·h/mL, an AUC_%Extrap_obs of 1.0%, a Clast of 4.04 ng/mL and a Cmax of 346 ng/mL. Moreover, in data set [3] (setting [8]), the Tlast turned out to be 30 h and the t½ worked out at 2.7 h. In data set [3] (mouse, liver, po, 10 mg/kg), this compound showed an AUC(0-inf) of 9250 ng·h/mL, an AUC(0-t) of 8850 ng·h/mL and a Cmax of 882 ng/mL. Besides, in data set [3] (mouse, lung, po, 10 mg/kg), the AUC(0-inf) was 3080 ng·h/mL, the AUC(0-t) was 3060 ng·h/mL, the highest level (Cmax) was 397 ng/mL and the half-life is 4.3 h. For the same compound, in data set [3] (mouse, plasma, iv, 3 mg/kg), the AUC(0-inf) worked out at 587 ng·h/mL, the AUC(0-t) turned out to be 585 ng·h/mL, the peak level (Cmax) was 168 ng/mL and the Tmax amounted to 4.98 min. This compound also had a half-life in data set [3] (mouse, plasma, iv, 3 mg/kg) of 3.6 h. Moreover, in data set [3] (mouse, plasma, po, 10 mg/kg), the AUC(0-t) was 1600 ng·h/mL and the half-life was 2.7 h. For the same compound, in the data set on ZIKV (early stages and 24 h post infection), the ZIKV growth entry was “inhibited ZIKV growth”. Besides, the ZIKV titer entry with ZIKV (human placental epithelial cells and iPSC-derived human neural progenitor cells) was “reduced ZIKV titer”.
